{
  "source": "paper PMC3948622",
  "about": "“Docking, Synthesis and Antiproliferative Activity of N-Acylhydrazone Derivatives Designed as Combretastatin A4 Analogues” (PLoS ONE, 2014)",
  "key": {"[1]": {"assay": "Aqueous solubility assay by ultraviolet spectroscopy", "assay_type": "physicochemical", "details": "water (saturated aqueous solution), thermodynamic from solid, 2 hours at 37°C, read-out: Aq. Solubility", "protocol": "Ultraviolet spectroscopy was performed using Femto spectrophotometer. The wavelength used in solubility assay was determined by the -λ max characteristic of each compound. Spectra were analyzed in Femtoscan software. Mass spectrometry was obtained by positive ionization at Bruker AmaZon SL and data analyzed in Compass 1.3.SR2 software.\nThe solubility assay was performed considering the absorptivity of compounds in ultraviolet spectroscopy as described by Schneider and coworkers. The assay wavelength was determined by the λ max characteristic of each compound.\nSaturated aqueous solutions were prepared (0.01 mg/mL) and were kept under stirring for 2 hours at 37°C. The supernatant was filtered in 0,45 µm filters and transferred to a quartz cuvette (10 mm) to spectra acquisition.\nSolubility was determined by linear regression using as graph plots, solutions prepared by dilutions of the original solution in methanol. The data were obtained in triplicates and the mean values were used to the graph plots. The correlation coefficient (R^2) values were between 0.9972 and 0.9999."}, "HL-60 (human leukemia)": {"test_system": "HL-60 (human leukemia)", "assay": "In vitro antiproliferative MTT assay, HL-60", "assay_type": "cell-based", "protocol": "(§1) The antiproliferative activity of compounds 5a–r was determined based on an MTT assay and using CA-4 as standard against the tumor cell lines: HL-60 (human leukemia), SF-295 (human glioblastoma), MDA-MB435 (melanoma), PC3M (prostate cancer), OVCAR-8 (ovaries adenocarcinoma), NCI-H258M (pulmonary bronchio-alveolar carcinoma) and HCT-8 (adenocarcinoma ileocecal) (Table 2). To determine the selectivity index of compounds 5a–r, their antiproliferative profile was also evaluated toward human lymphocytes (Table 2).\n(§2) Compounds (0.009–5 µg/mL) were tested for cytotoxic activity against selected cancer cell lines: SF-295 (glioblastoma), HCT-8 (colon), MDAMB-435 (melanoma), HL60 (leukemia), PC3M (prostate cancer), OVCAR-8 (ovaries adenocarcinoma) and NCI-H258M (pulmonary bronchio-alveolar carcinoma). All cell lines were kindly obtained from the National Cancer Institute (Bethesda, MD, USA).Tumor cell proliferation was quantified through the ability of living cells to reduce the yellow dye 3-(4,5-dimethyl-2-thiazolyl)-2,5-diphenyl-2H-tetrazolium bromide (MTT, Sigma Aldrich)) to a purple formazan product and absorbance was measured at 595 nm (DTX-880, Beckman Coulter)."}, "[2]": {"test_system": "OVCAR-8 (ovaries adenocarcinoma)", "assay": "In vitro antiproliferative MTT assay, OVCAR-8", "assay_type": "cell-based", "protocol": "as §1, §2"}, "[3]": {"test_system": "NCI-H358M (pulmonary bronchio-alveolar carcinoma)", "assay": "In vitro antiproliferative MTT assay, NCI-H358M", "assay_type": "cell-based"}, "tubulin": {"test_system": "tubulin", "assay": "Tubulin polymerization assay (CEREP)", "assay_type": "biochemical", "details": "single concentration C = 30 µM; vinblastine as positive control", "protocol": "The tubulin polymerization assay was performed by CEREP® employing a single concentration of 5b (C = 30 µM), using vinblastine as positive control. In this assay, LASSBio-1586 (5b) inhibited 91% of the tubulin polymerization, validating the rational design employed in the molecular design of the derivatives 5a–r (data not shown; available in the supplementary information, Figure S1).\nThe tubulin polymerization assay was performed by CEREP®, as described by Bonne and co-workers."}, "BALB/c nude mice": {"test_system": "BALB/c nude mice", "details": "for Survival: 4 days", "protocol": "During the HFA, tumor cells (i.e., SF-295 and HCT-116) were cultivated within biocompatible, semipermeable polyvinylidene fluoride hollow fibers (HFs) and subcutaneously (s.c.) implanted within the dorsal portion of BALB/c nude mice. LASSBio-1586 (5b) and 5-Fluorouracil (5-FU), which was the positive control, were administered intraperitoneally for 4 consecutive days. On day 5, the fibers were removed to quantify the antiproliferative activity of 5b and 5-FU.\nA total of 26 female BALB/c nude (nu/nu) mice aging 6–8 weeks were obtained from the animal facilities of State University of São Paulo (USP), Faculty of Medicine, São Paulo (SP), Brazil. They were kept in well-ventilated and sterile cages (Alesco, São Paulo) under standard conditions of light (12 h with alternative day and night cycles) and temperature (22±1°C) and were housed with access to commercial sterile rodent stock diet (Nutrilabor, São Paulo, Brazil) and water ad libitum. As previously mentioned procedures are in accordance with guidelines for the welfare of animals in experimental neoplasia and with national and international standard on the care and use of experimental laboratory animals and were approved by the local Ethical Committee on Animal Research (Process No. 102/2007).\nMice were anaesthetized with ketamine (90 mg/kg) - xylazine (4.5 mg/kg) (Sigma Aldrich). Groups were divided into: a) Negative control (DMSO 5%, n = 6); b) Positive control (5-Flouoruracil, 5-FU, 25 mg/kg/day, n = 7) (Sigma Aldrich); c) LASSBio-1586 (5b; 25 mg/kg/day, n = 7); d) LASSBio-1586 (5b; 50 mg/kg/day, n = 6). A small incision in the neck was incised to permit subcutaneous (s.c.) implantation of the fibers in the dorsal part of the animal. Each animal received 2 fibers at s.c. site. All incisions were sealed with a surgical stapler. The test compounds were administered intraperitoneally during 4 consecutive days. On day 5, fibers were removed to quantify the antiproliferative capacity as described above."}, "[4]": {"details": "IC50 for human lymphocytes/IC50 for cancer cell line"}, "[5]": {"details": "SI of 5b relative to SI of CA-4"}},
  "note": "Read-outs that look alike come from different tables or passages of the source.",
  "data": [
    {"molecule": "COc1cc(C(=O)N/N=C/c2ccccc2)cc(OC)c1OC", "note": "[Compound 5b, (E)-N′benzylidene-3,4,5-trimetoxybenzohydrazide]", "values": [
      {"measurement": "solubility at 2 h", "setting": "[1]", "result": 39.5, "unit": "µg/mL"},
      {"measurement": "IC50", "setting": "HL-60 (human leukemia); Homo sapiens, HL-60, Table 2, MTT", "result": 290, "unit": "nM"},
      {"measurement": "SI Lymphocyte/ HL-60", "setting": "HL-60 (human leukemia); [4]", "result": "4.11±0.39"},
      {"measurement": "IC50", "setting": "[2]; Homo sapiens, OVCAR-8, Table 2, MTT", "result": 290, "unit": "nM"},
      {"measurement": "SI Lymphocyte/ OVCAR-8", "setting": "[2]; [4]", "result": "4.39±0.21"},
      {"measurement": "comparative selectivity index (CA-4 vs 5b) OVCAR-8", "setting": "[2]; [5]", "result": 0.5},
      {"measurement": "SI Lymphocyte/ NCI-H358M", "setting": "[3]; [4]", "result": "4.05±0.25"},
      {"measurement": "IC50", "setting": "[3]; NCI-H358M, Table 2, MTT", "result": 350, "unit": "nM"},
      {"measurement": "comparative selectivity index (CA-4 vs 5b) NCI-H258M", "setting": "[3]; [5]", "result": 9.5},
      {"measurement": "inhibition of tubulin polymerization", "setting": "tubulin", "result": 91, "unit": "%"},
      {"measurement": "Survival", "setting": "BALB/c nude mice; 25 mg/kg/day intraperitoneally", "result": "7/7"},
      {"measurement": "Survival", "setting": "BALB/c nude mice; 50 mg/kg/day intraperitoneally", "result": "6/6"},
      {"measurement": "deaths of mice during treatment", "setting": "BALB/c nude mice; intraperitoneally for 4 consecutive days, HFA", "result": "no deaths occurred"}
    ]}
  ]
}
